Measurements taken from patent US20060063210A1, “Histone deacetylase whole cell enzyme assay” (Methylgene, Inc., priority 2004, published 2006).

Columns and labels:
[1] = biological target: T1, SirT1 (HCT116 cells) (Homo sapiens, UniProt Q96EB6); experiment: whole cell sirtuin (SirT1) activity in HCT116 cells with Fluor-de-Lys-SirT1 substrate; assay type: cell-based; conditions: HCT116 cells; fixed Fluor-de-Lys-SirT1 or Fluor-de-Lys-SirT2 substrate
T1 construct: endogenous in cells; host or cells: HCT116
T1 sequence (Q96EB6 1-747): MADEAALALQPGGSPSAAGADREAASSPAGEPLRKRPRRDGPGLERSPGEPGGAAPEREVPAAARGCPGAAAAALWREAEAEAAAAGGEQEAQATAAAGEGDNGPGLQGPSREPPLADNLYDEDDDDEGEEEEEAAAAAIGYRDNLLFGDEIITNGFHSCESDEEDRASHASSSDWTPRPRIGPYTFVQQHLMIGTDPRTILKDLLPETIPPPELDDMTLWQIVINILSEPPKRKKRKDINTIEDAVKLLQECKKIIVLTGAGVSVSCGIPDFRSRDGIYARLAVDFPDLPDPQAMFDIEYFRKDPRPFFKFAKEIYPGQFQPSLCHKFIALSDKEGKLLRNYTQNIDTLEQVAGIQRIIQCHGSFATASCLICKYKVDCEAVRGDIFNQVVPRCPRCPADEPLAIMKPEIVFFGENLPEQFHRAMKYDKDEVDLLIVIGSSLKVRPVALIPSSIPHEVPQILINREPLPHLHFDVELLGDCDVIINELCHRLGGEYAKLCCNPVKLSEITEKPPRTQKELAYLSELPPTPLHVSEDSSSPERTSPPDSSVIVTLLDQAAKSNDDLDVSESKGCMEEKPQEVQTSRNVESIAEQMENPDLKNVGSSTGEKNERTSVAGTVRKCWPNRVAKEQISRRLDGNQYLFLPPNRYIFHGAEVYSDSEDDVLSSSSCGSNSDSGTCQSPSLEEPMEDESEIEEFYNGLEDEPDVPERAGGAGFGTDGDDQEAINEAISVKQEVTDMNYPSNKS
From the text: Cultured cells (HCT116) were trypsinized and counted by trypan blue exclusion. Live cells (2×10^5) were distributed to each well of the 96-well plate. […] Independently, we fixed concentrations of either Fluor-de-Lys-SirT1 substrate or Fluor-de-Lys-SirT2 in whole cells and analyzed the effect of exogeneous NAD+ concentration on whole cell sirtuin activity (FIG. 7b). […] Therefore the reading was done immediately after stopping.
Cultured HCT116 cells were counted and distributed to each well of the 96-well plate. […] After addition of Sirtuin substrate (Fluor-de-Lys-SirT1, 500 uM) or HDAC substrate Boc-Lys(Ac)-AMC (300 uM), the cells are further incubated for an additional 2 hours. Reaction was stopped and read as described in Examples 3 and 6. […] This observation is consistent with our finding in Example 7 that TSA can not inhibit class III (Sirtuins) in vitro.

[2] = tested on: HDAC (293T cells); experiment: whole cell deacetylase (HDAC) assay in 293T cells with Boc-Lys(Ac)-AMC; assay type: cell-based, human; conditions: for IC50: pre-incubated with inhibitors 16 hours, mean of at least 2 experiments
Procedure: (§1) Freshly trypsinized cells were dispensed into 96-well black Costar E1A/RIA plates (Corning Inc., Corning, N.Y.). Small molecule substrate Boc-Lys(Ac)-AMC (Bachem Biosciences Inc., King of Prussia, Philadelphia) was added to cell suspension with the final concentration of 300 uM. Cells were placed in 37° C. incubator with 5% CO2 for 90 minutes. Reaction was stopped by adding a freshly prepared Flouor-de-Lys™ deleveloper (Biomol, Plymouth Meeting, Philadelphia) with 1 uM TSA (Biomol) in assay buffer (25 mM Tris, HCl pH8.0, 137 mM NaCl, 2.7 mM KCl, 1 mM MgCl2) plus 1% NP-40. With the presence of 1% NP-40, both excellular and intracellular HDAC activity was measured in cultured cells altogether.
(§2) HDAC enzyme assay in intact cells was carried out as described in Example 3.

[3] = tested on: HDAC (Du145 cells); experiment: whole cell deacetylase (HDAC) assay in Du145 cells with Boc-Lys(Ac)-AMC; assay type: cell-based, human; conditions: pre-incubated with inhibitors 16 hours, mean of at least 2 experiments
Procedure: as §1, §2

[4] = tested on: HDAC (HCT116 cells); experiment: whole cell deacetylase (HDAC) assay in HCT116 cells with Boc-Lys(Ac)-AMC; assay type: cell-based, human; conditions: pre-incubated with inhibitors 16 hours, mean of at least 2 experiments
Procedure: as §1, §2
Cultured HCT116 cells were counted and distributed to each well of the 96-well plate. […] After addition of Sirtuin substrate (Fluor-de-Lys-SirT1, 500 uM) or HDAC substrate Boc-Lys(Ac)-AMC (300 uM), the cells are further incubated for an additional 2 hours. Reaction was stopped and read as described in Examples 3 and 6.

[5] = tested on: HDAC (A549 cells); experiment: whole cell deacetylase (HDAC) assay in A549 cells with Boc-Lys(Ac)-AMC; assay type: cell-based, human; conditions: pre-incubated with inhibitors 16 hours, mean of at least 2 experiments
Procedure: as §1, §2

[6] = tested on: HDAC (human white blood cells); experiment: ex vivo inhibition of whole cell HDAC activity in human white blood cells; assay type: cell-based; conditions: 16 hours incubation
Procedure: Whole blood (human or mouse) was centrifuged at 2500 rpm for 10 minutes at ambient temperature in a Sorvall RT-7 centrifuge (Mandel Scientific Co., Guelph, Ontario). Plasma was removed and buffy coat was collected. Five volumes of Erythrocyte Lysis Buffer (EL) (Qiagen Canada Inc., Mississauga, Ontario) were added to buffy coat. Buffy coat was incubated on ice for 20 minutes before it was centrifuged at 400 g for 10 minutes at 4° C. Supernatant was removed and buffy coat was washed twice with EL buffer and re-centrifugation. Buffy coat was resuspended in RPMI media and cells (white blood cells) were counted with trypan blue exclusion.

[7] = tested on: HDAC (Jurkat T cells); experiment: whole cell deacetylase (HDAC) assay in Jurkat T cells with Boc-Lys(Ac)-AMC; assay type: cell-based, human; conditions: pre-incubated with inhibitors 16 hours, mean of at least 2 experiments
Procedure: as §1, §2

[8] = tested on: HDAC (Panc-1 cells); experiment: whole cell deacetylase (HDAC) assay in Panc-1 cells with Boc-Lys(Ac)-AMC; assay type: cell-based, human; conditions: pre-incubated with inhibitors 16 hours, mean of at least 2 experiments
Procedure: as §1, §2

Row | effect of exogenous NAD+ on whole cell sirtuin activity [1] | IC50 [3] | IC50 [4] | IC50 [5] | IC50 [7] | IC50 [8] | SMILES | IC50 [2] | inhibition of whole cell HDAC activity in human white blood cells [6] | effect on HDAC activity in whole cells [2]
1 | no effect on whole cell sirtuin activity | – | – | – | – | – | NC(=O)c1ccc[n+]([C@@H]2O[C@H](COP(=O)([O-])OP(=O)(O)OC[C@H]3O[C@@H](n4cnc5c(N)ncnc54)[C@H](O)[C@@H]3O)[C@@H](O)[C@H]2O)c1 [NAD+] | – | – | –
2 | – | 50 nM | 60 nM | 20 nM | 40 nM | – | O=C(/C=C/c1ccc(CN(CCO)CCc2c[nH]c3ccccc23)cc1)NO [LAQ-824] | 40 nM | dose-dependent inhibition | –
3 | – | – | – | – | – | – | CC(=O)O[C@H]1C(=O)[C@@]2(C)[C@H]([C@H](OC(=O)c3ccccc3)[C@]3(O)C[C@H](OC(=O)[C@H](O)[C@@H](NC(=O)c4ccccc4)c4ccccc4)C(C)=C1C3(C)C)[C@]1(OC(C)=O)CO[C@@H]1C[C@@H]2O [taxol] | > 50000 nM | – | no effect on HDAC activity
4 | – | 300 nM | 3000 nM | 400 nM | 300 nM | 500 nM | Nc1ccccc1NC(=O)c1ccc(CNC(=O)OCc2cccnc2)cc1 [MS-275] | 2000 nM | – | –
